Assay results reported in patent publication US20100221345A1, “OSTEOGENIC BIOMATERIAL CONTAINING OSTEOGENESIS PROMOTING SUBSTANCE AND NANOGEL” (NATIONAL UNIVERSITY CORPORATION TOKYO MEDICAL AND, priority 2006, published 2010).

Experiments:
MC3T3E1 cells [1] = assay: Cell differentiation by alkaline phosphatase (ALP) activity in osteoblast cell line; format: cell-based; conditions: PGE2 10 μM, 24 hours, FIG. 5
Experimental: (§1) In order to understand the mechanism at the cellular level of the PGE2-containing CHP nanogel, the osteoblast cell line MC3T3E1 cell culture system was used to analyze the cell differentiation by alkaline phosphatase (ALP) activity and the cell growth by the MTT method.
(§2) MC3T3E1 cells were seeded 5×10^3 cells/well in a 96-well plate and cultured in the presence of […] at 37° C. for 1 day. These cells were supplied with the PGE2-containing CHP solution (PGE2 10 μM) prepared in the same manner as in Example 2 to get the same concentration, then cultured in the presence of […] at 37° C. for 24 hours, then collected by scraping, and dissolved in 0.05 ml of a lysis buffer. The alkaline phosphatase (ALP) activity was measured according to the published protocols. In addition, the MTT method was conducted according to the published protocols.

mouse parietal bone = assay: Osteogenesis in mouse parietal bone with PGE2-containing CHP nanogel (width by 2-D μCT); format: in vivo; conditions: 3-week old ICR mouse, local administration onto parietal bone 5 times a week for 4 weeks, PGE2 0.6 μg/ml, FIG. 3
Experimental: PGE2-containing hydrophobized polysaccharide nanogel was administered to a mouse parietal bone to observe osteogenesis.
(§3) The PGE2-containing CHP prepared by the same manner as in Example 2 was locally administrated onto the parietal bone of a 3-week old ICR mouse 5 times a week for 4 weeks. […] of the prepared PGE2-containing CHP solution (PGE2 0.6 μg/ml) was administered for a dose. Evaluation was conducted for 4 groups of physiological saline, PGE2, CHP, PGE2-containing CHP (N=5). After 4 weeks of administration, the mice were sacrificed, and the parietal bones were collected, and the width of the parietal bone was measured by 2-D μCT. In order to study the effect on the bones of a whole body, the amount of cancellous bone of the femur was evaluated.

femur cancellous bone = assay: Effect on bones of the whole body: amount of cancellous bone of the femur; format: in vivo, ICR mouse; conditions: same mice, local parietal administration 5 times a week for 4 weeks, FIG. 4
Experimental: as §3

MC3T3E1 cells [2] = assay: Cell growth by the MTT method in osteoblast cell line; format: cell-based; conditions: PGE2 10 μM, 24 hours, FIG. 5
Experimental: as §1, §2

**Q.** How did the “cellular differentiation (ALP activity)” value (MC3T3E1 cells [1]) turn out when `CCCCC[C@H](O)/C=C/[C@H]1[C@H](O)CC(=O)[C@@H]1C/C=C\CCCC(=O)O` [PGE2, Prostaglandin E2] was run?
**A.** increase

**Q.** What about the “width of the parietal bone” value (mouse parietal bone) of the same compound?
**A.** no change

**Q.** What about the “amount of cancellous bone in the femur apart from the administration site” value (femur cancellous bone) of the same compound?
**A.** increase

**Q.** And the “cellular growth (MTT method)” value (MC3T3E1 cells [2])?
**A.** increase
